What was measured:
weeds [1] = assay: Ex10 PRE greenhouse; assay type: in vivo; conditions: 28 DAT, weed and rate in the words
Excerpt: Treatments 1-12 of 2,4-DC and aclonifen tank-mix combinations follow same rates listed above. […] Sulfentrazone (Spartan 4F® 39.6%) at 280 g ai/ha, pendimethalin (Prowl 3.3®EC, 37.4%) at 784 g ai/ha, or S-metolachlor (Dual II Magnum® 82.4%) at 1084 g ai/ha were applied as commercial standards. Treatments were replicated 3 times and flats were watered after planting but before the treatment and lightly watered after treatment application. Thereafter flats were watered and fertilized routinely. […] Shepherd's-purse was rated at 21 and 28 DAT only, due to delayed emergence.

Common cocklebur = assay: Ex37 PRE 2,4-DC + atrazine, % control 28 DAT, Colby; assay type: in vivo, Xanthium strumarium
Excerpt: (§1) S-metolachlor (DUAL II MAGNUM®, 82.4%) at 525 g ai/h plus atrazine at 560 g ai/h was included as a standard for comparison. […] Thereafter flats were watered and fertilized routinely.

Velvetleaf = assay: as above; assay type: in vivo, Abutilon theophrasti; conditions: PRE
Excerpt: as §1

weeds; Wheat and Barley = assay: Ex14 POST greenhouse; assay type: in vivo; conditions: 28 DAT, rate in the words
Excerpt: (§2) The study further assessed post crop safety on Wheat and Barley.
(§3) Nonionic surfactant at 0.5% (v/v) was included with commercial standards application. No adjuvant was applied with any other treatments. All plant species were direct seeded into 3″ plastic pots using metro-mix as growth media. At treatment application common lambsquarters was 1.75″, common chickweed was 2″, wild mustard was 2.25″, wild oat was 5.5″, wild buckwheat was 2-5″, Italian ryegrass was 2-3″, wheat was 5.5″, and barley was 4.5″ in height. Plants were watered well before application and not watered 24 h after application. Plants were watered and fertilized routinely after treatment application. Each treatment was replicated four times.

common chickweed = assay: Ex14 POST 2,4-DC + bromoxynil, % control 28 DAT, Colby; assay type: in vivo, Stellaria media
Excerpt: as §2, §3

[2] = system: weeds; Sugarcane (var. CTC 20); assay: Ex17 PRE greenhouse; assay type: in vivo; conditions: weed and rate in the words
Description: (§4) In this example a study was conducted to determine weed efficacy and sugarcane injury when 2,4 DC or isoxaflutole are applied either alone or tank-mix as preemergence against the weeds: Ivyleaf morningglory (Ipomoea hederacea, IPOHE), hairy beggartickss (Bidens pilosa, BIDPI), yellow nutsedge (Cyperus esculentus, CYPES), large crabgrass (Digitaria sanguinalis, DIGSA), and redroot pigweed (Amaranthus retroflexus, AMARE). The crop tested in this study was Sugarcane (var. CTC 20).
(§5) To determine weed efficacy and sugarcane selectivity, 2,4 DC (SC 36%) and isoxaflutole (Balance Flexx®, 20%) were applied PRE either alone or as tank-mix partners at rates mentioned below. 2,4 DC was applied at 500, 750, and 1000 g ai/ha while isoxaflutole was applied at 80, 100, and 120 g ai/ha. […] Treatments were applied PRE to sugarcane (var. CTC 20), ivyleaf morningglory, hairy beggarticks, yellow nutsedge, large crabgrass, and redroot pigweed. Weed species were planted in fiber flats (6″×10″) containing Pennington soil. Soil was watered before application and watered lightly after application. Flats were watered and fertilized routinely after treatment application.

weeds [3] = assay: Ex18 PRE greenhouse; assay type: in vivo; conditions: weed and rate in the words
Excerpt: (§6) Additional treatments included application of metazachlor (Butisan®, 43.1%) at 750 g ai/ha, napropamide (Devrinol DF®, 50%) at 1260 g ai/ha, and dimethachlor (Teridox®, 48%) at 1000 g ai/ha. […] Treatments were applied just after the seeding of annual bluegrass, cheat, wild oat, quackgrass, field violet, blackgrass, littleseed canarygrass, silky windgrass, yellow foxtail, and goosegrass. […] Flats were watered and fertilized routinely after treatment application. Each treatment was replicated three times.

Wild buckwheat = assay: Ex11 PRE 2,4-DC + clomazone, % control 28 DAT, Colby; assay type: in vivo, Polygonum convolvulus
Excerpt: The crop tested was Oilseed rape.
Additional treatments included applications of metazachlor (Butisan®, 43.1%) at 750 g ai/ha, napropamide (Devrinol DF®, 50%) at 1260 g, and dimethachlor (Teridox®, 48%) at 1000 g. […] Treatments were applied just after the planting of tall morningglory, wild mustard, common lambsquarters, Italian ryegrass, wild buckwheat, redroot pigweed, common chickweed, corn poppy, and oilseed rape.
Flats were watered and fertilized routinely after treatment application. Each treatment was replicated three times.

Cheat = assay: Ex18 PRE 2,4-DC + clomazone, % control 28 DAT, Colby; assay type: in vivo, Bromus secalinus
Excerpt: as §6

Blackgrass = assay: Ex13 PRE 2,4-DC + diflufenican, % control 28 DAT, Colby; assay type: in vivo, Alopecurus myosuroides
Excerpt: (§7) Pyroxasulfone (KIH-485, 85%) at 74.3 g ai/ha, pendimethalin (Prowl 3.3EC, 37.4%) at 1200 g ai/ha, or a premix of chlorsulfuron plus metsulfuron-methyl (Report Extra, 75%) at 15.8 g ai/ha were applied as commercial standards. […] Treatments were replicated 3 times and flats were watered after planting before the treatment and lightly watered after treatment application. Thereafter flats were watered and fertilized routinely.

weeds [4] = assay: Ex13 PRE greenhouse; assay type: in vivo; conditions: 28 DAT, weed and rate in the words
Excerpt: as §7

Wild mustard = assay: Ex13 PRE 2,4-DC + diflufenican, % control 28 DAT, Colby; assay type: in vivo, Sinapis arvensis
Excerpt: as §7

Common lambsquarters = assay: as above; assay type: in vivo, Chenopodium album
Excerpt: as §7

weeds; Wheat and canola = assay: Ex29 PRE greenhouse; assay type: in vivo; conditions: 28 DAT
Excerpt: The tested weeds include Italian ryegrass (Lolium perenne. multiflorum, LOLMU), wild mustard (Sinapis arvensis, SINAR), annual bluegrass (Poa annua, POAAN), wild oat (Avena fatua, AVEFA), blackgrass (Alopecurus myosuroides, ALOMY), common lambsquarters (Chenopodium album, CHEAL), littleseed canarygrass (Phalaris minor, PHAMI), common chickweed (Stellaria media, STEME), corn poppy (Papaver rhoeas, PAPRH), redroot pigweed (Amaranthus retroflexus, AMARE), silky windgrass (Apera spica-venti, APSEV), wild buckwheat (Polygonum convolvulus, POLCO). The crops teased were Wheat and canola.
Treatments were applied before the emergence of Italian ryegrass, wild oat, wild buckwheat, blackgrass, littleseed canarygrass, common chickweed, common lambsquarters, corn poppy, silky windgrass, redroot pigweed, wild mustard, annual bluegrass, canola, and wheat. […] Flats were watered and fertilized routinely after treatment application.

weeds; Sugarcane (CTC20) = assay: Ex23 PRE greenhouse; conditions: 28 DAT, 85 g ai/ha
Description: (Ipomoea spp). The tested crop in this study was Sugarcane (CTC20).
Sugarcane was direct seeded into 6″ plastic pots using 3-4″ sugarcane setts, oriented bud up, with bud leaf shield removed. 2,4 DC and sulfentrazone were applied alone or combined as tank-mix at each rate mentioned below. […] Treatments were replicated 3 times. […] Thereafter flats were watered and fertilized routinely. […] Visual percent sugarcane injury was recorded at 21 and 28 DAT, using a scale of 0 (no injury, observed as bleaching, stunting or necrosis) to 100 (complete plant death).

Ivyleaf morningglory = assay: Ex17 PRE 2,4 DC + isoxaflutole, % control 28 DAT, Colby; assay type: in vivo, Ipomoea hederacea
Description: as §4
as §5, with “Weed species were planted in fiber flats (6″×10″) containing Pennington soil.” left out

[5] = system: weeds; Wheat, barley, and oil seed rape (OSR); assay: Ex19 PRE greenhouse; assay type: in vivo; conditions: rate in the words
Excerpt: In this study, the crops tested included Wheat, barley, and oil seed rape (OSR).
To determine weed efficacy and wheat, barley or OSR selectivity, 2,4 DC (CS 36.7%) and Diflufenican (CS 19.5%) were applied preemergence either alone or as tank-mix partners at the following rates. 2,4 DC was applied at 125, 170, 210 and 250 g ai/ha while Diflufenican was applied at 50, 75, and 100 g ai/ha. Pyroxasulfone (KIH-485, 85%) at 74.3 g ai/ha, pendimethalin (Prowl 3.3EC, 37.4%) at 1200 g ai/ha, or a premix of chlorsulfuron plus metsulfuron-methyl (Report Extra, 75%) at 15.8 g ai/ha were applied as commercial standards.
Herbicides included as standards for comparison were pyroxasulfone, pendimethalin, and a pre mix of chlorsulfuron plus metsulfuron methyl, all applied at labeled rates as indicated above. Treatments were replicated 3 times. […] Thereafter flats were watered and fertilized routinely.

SMILES: Nc1c([N+](=O)[O-])ccc(Oc2ccccc2)c1Cl [Aclonifen, aclonifen]
- weed control in words (weeds [1]): alone at all three rates controlled common lambsquarters, quackgrass, redroot pigweed, littleseed canarygrass, annual bluegrass, blackgrass, and shepherd's purse

SMILES: CCNc1nc(Cl)nc(NC(C)C)n1 [Atrazine]
- Y (Common cocklebur; Atrazine alone 140 g ai/ha): 57%
- Y (Common cocklebur; Atrazine alone 280 g ai/ha): 92%
- Y (Common cocklebur; Atrazine alone 560 g ai/ha): 97%
- Y (% control, atrazine alone) (Velvetleaf; atrazine 140 g ai/ha): 53%
- Y (% control, atrazine alone) (Velvetleaf; atrazine 280 g ai/ha): 63%
- Y (% control, atrazine alone) (Velvetleaf; atrazine 560 g ai/ha): 96%

SMILES: N#Cc1cc(Br)c(O)c(Br)c1 [Bromoxynil, bromoxynil, reference compound]
- weed control / crop safety in words (weeds; Wheat and Barley): alone controlled wild buckwheat, wild mustard, and common lambsquarters at all rates and was safe on both crops at all rates
- Y (common chickweed; bromoxynil alone 140 g ai/ha): 35%
- Y (common chickweed; bromoxynil alone 210 g ai/ha): 65%
- Y (common chickweed; bromoxynil alone 280 g ai/ha): 38%

SMILES: CC1(C)CON(Cc2ccccc2Cl)C1=O [Clomazone, clomazone, reference compound]
- weed control in words [2]: at 1120 g controlled hairy beggarticks, large crabgrass, and redroot pigweed
- weed control in words (weeds [3]): controlled goosegrass at all rates and cheat at 120 g
- Y (Wild buckwheat; clomazone alone 60 g ai/ha): 70%
- Y (Wild buckwheat; clomazone alone 90 g ai/ha): 80%
- Y (Wild buckwheat; clomazone alone 120 g ai/ha): 79%
- Y (Cheat; clomazone alone 60 g ai/ha): 40%
- Y (Cheat; clomazone alone 90 g ai/ha): 75%
- Y (Cheat; clomazone alone 120 g ai/ha): 97%

SMILES: O=C(Nc1ccc(F)cc1F)c1cccnc1Oc1cccc(C(F)(F)F)c1 [Diflufenican, diflufenican, reference compound]
- Y (Blackgrass; diflufenican alone 50 g ai/ha): 33%
- Y (Blackgrass; diflufenican alone 75 g ai/ha): 17%
- Y (Blackgrass; diflufenican alone 100 g ai/ha): 27%
- weed control in words (weeds [4]): controlled common lambsquarters at 100 g only
- Y (Wild mustard; diflufenican alone 50 g ai/ha): 42%
- Y (Wild mustard; diflufenican alone 75 g ai/ha): 89%
- Y (Wild mustard; diflufenican alone 100 g ai/ha): 100%
- Y (Common lambsquarters; diflufenican alone 50 g ai/ha): 65%
- Y (Common lambsquarters; diflufenican alone 75 g ai/ha): 73%
- Y (Common lambsquarters; diflufenican alone 100 g ai/ha): 85%

SMILES: COCCN(C(=O)CCl)c1c(C)cccc1C [Dimethachlor, dimethachlor]
- weed control in words (weeds [3]): controlled annual bluegrass, quackgrass, littleseed canarygrass, silky windgrass, yellow foxtail, and goosegrass
- injury to canola (weeds; Wheat and canola; at 100 g): 18%
- weed control / crop safety in words (weeds; Wheat and canola; weed, crop, rate in the words): alone provided control of lambsquarters at 1000 g ai/ha

SMILES: CS(=O)(=O)c1cc(C(F)(F)F)ccc1C(=O)c1cnoc1C1CC1 [Isoxaflutole, isoxaflutole, reference compound]
- sugarcane injury (weeds; Sugarcane (CTC20)): 12%
- weed control in words [2]: alone at 80 g or higher rates controlled hairy beggarticks, large crabgrass, and redroot pigweed
- Y (Ivyleaf morningglory; isoxaflutole alone 80 g ai/ha): 69%
- Y (Ivyleaf morningglory; isoxaflutole alone 100 g ai/ha): 73%
- Y (Ivyleaf morningglory; isoxaflutole alone 120 g ai/ha): 81%

SMILES: CCC(CC)Nc1c([N+](=O)[O-])cc(C)c(C)c1[N+](=O)[O-] [Pendimethalin, pendimethalin]
- weed control / crop safety in words [5]: controlled corn poppy and field violet and was safe on barley
- weed control in words (weeds [4]): at 1200 g gave control of 6 out of 10 weeds
- weed control in words (weeds [1]): at 784 g gave control of 5 out of 10 weeds
